The NIST ThermoML archive (doi:10.1016/j.jct.2012.07.007)
± gives the expanded uncertainty stated by the source.

Conditions: 101.33 kPa, Liquid; for speed of sound: Linear variable-path acoustic interferometer; for mass density: Vibrating tube method

| Compound | speed of sound (293.15 K) | mass density (293.15 K) | speed of sound (298.15 K) | mass density (298.15 K) | speed of sound (303.15 K) | mass density (303.15 K) | speed of sound (308.15 K) | mass density (308.15 K) |
| --- | --- | --- | --- | --- | --- | --- | --- | --- |
| Cc1cccnc1 [3-methylpyridine] | 1445.9 ± 1.8 m/s | 956.581 ± 0.23 kg/m3 | 1424 ± 1.8 m/s | 952.002 ± 0.23 kg/m3 | 1404 ± 1.8 m/s | 947.449 ± 0.23 kg/m3 | 1384 ± 1.8 m/s | 942.831 ± 0.23 kg/m3 |
| Cc1ccccn1 [2-methylpyridine] | 1400.5 ± 2.5 m/s | 944.401 ± 0.77 kg/m3 | 1380.1 ± 2.5 m/s | 939.802 ± 0.77 kg/m3 | 1361 ± 2.5 m/s | 935.117 ± 0.76 kg/m3 | 1339.9 ± 2.5 m/s | 930.414 ± 0.76 kg/m3 |
| c1ccncc1 [pyridine] | 1442 ± 1.8 m/s | 983.191 ± 0.23 kg/m3 | 1417.8 ± 1.8 m/s | 978.249 ± 0.23 kg/m3 | 1398 ± 1.8 m/s | 973.224 ± 0.23 kg/m3 | 1377.1 ± 1.8 m/s | 968.166 ± 0.23 kg/m3 |

Further lines, results first:

| speed of sound (293.15 K) | mass density (293.15 K) | speed of sound (298.15 K) | mass density (298.15 K) | speed of sound (303.15 K) | mass density (303.15 K) | speed of sound (308.15 K) | mass density (308.15 K) | Compound |
| --- | --- | --- | --- | --- | --- | --- | --- | --- |
| 1631 ± 2.6 m/s | 1283.89 ± 1.5 kg/m3 | 1619.4 ± 2.6 m/s | 1279.91 ± 1.5 kg/m3 | 1607.6 ± 2.6 m/s | 1276.26 ± 1.5 kg/m3 | 1596.3 ± 2.6 m/s | 1272.07 ± 1.4 kg/m3 | CCn1cc[n+](C)c1.F[B-](F)(F)F [1-ethyl-3-methylimidazolium tetrafluoroborate] |
| 1451.1 ± 1.8 m/s | 955.099 ± 0.23 kg/m3 | 1431.5 ± 1.8 m/s | 950.179 ± 0.23 kg/m3 | 1410.7 ± 1.8 m/s | 945.413 ± 0.23 kg/m3 | 1389.9 ± 1.8 m/s | 940.821 ± 0.23 kg/m3 | Cc1ccncc1 [4-methylpyridine] |
